Measurements from paper PMC4418728, “A High Throughput Protein Microarray Approach to Classify HIV Monoclonal Antibodies and Variant Antigens” (PLoS ONE, 2015).
No end group written: not given here.

Legend:
mAb 4E10 = assay: In-solution competition ELISA; assay type: binding, human; conditions: for IC50: read-out: IC50 of competitor peptide, mAb 4E10
Method: (§1) The in-solution competition ELISA was performed according to Stanfield and colleagues. In brief, 96-well plates were coated o/n with 200 ng/well neutravidin (Pierce) in PBS at 4°C and blocked with 4% NFDM for 1 h at RT. Different competing MPER peptide analogs (serially diluted 1:3 in 1% NFDM at a starting concentration of 0.04 mM) were mixed with a constant concentration of biotinylated peptide bio-0705 (0.1 μg/ml) or bio-57 (0.1 μg/ml) and the corresponding human mAb 4E10 (0.5 μg/ml) or mAb 2F5 (0.2 μg/ml), respectively. The antibody/peptide mixture was incubated for 2 h at 37°C, subsequently transferred to the neutravidin plates and incubated at 37°C for 20 min. Bound antibodies were detected with HRP labeled goat anti human F(ab)2 conjugate (Pierce). After 1 h at RT, wells were developed, stopped and read as described above. The concentration of competitor peptide corresponding to a half-maximal signal (IC50) was determined by nonlinear fit interpolation of the resulting binding curve (GraphPad PRISM 5.0 software). Each peptide competitor was tested in duplicate in at least two separate experiments.

mAb 2F5 = assay: In-solution competition ELISA; assay type: binding, human; conditions: competition with biotinylated peptide bio-57 (0.1 μg/ml) for mAb 2F5 (0.2 μg/ml), peptide 1:3 dilutions from 0.04 mM, 2 h at 37°C, duplicate, at least two experiments; for IC50: read-out: IC50 of competitor peptide, mAb 2F5
Method: as §1

[1] = competition with biotinylated peptide bio-0705 (0.1 μg/ml) for mAb 4E10 (0.5 μg/ml), peptide 1:3 dilutions from 0.04 mM, 2 h at 37°C, duplicate, at least two experiments

Row | Substance | IC50 (mAb 4E10; [1]) [nM] | IC50 (mAb 2F5) [nM] | enhancement in IC50 compared to control peptide 94.1, mAb 4E10 (mAb 4E10; in-solution competition assay) | IC50 of competitor peptide, mAb 4E10 (mAb 4E10; [1]) | IC50 of competitor peptide, mAb 2F5 (mAb 2F5)
1 | ELDKWASLWNWFNITNWLWYIKIEELKSKIKRIENEIKRIKK [C22-pT, reference compound] | 3270 | > 10000 | – | – | –
2 | ELDKWASLWNWFDITNWLWYIKIEELKSKIKRIENEIKRIKK [compound 09128] | 0.9 | 76.3 | more than 80 fold | – | –
3 | WTLNIFWIWSYLDWSNKKKK-NH2 [compound 08023, scrambled negative control peptide based on 09122] | – | – | – | did not interact | did not interact
